Assay results as given in patent publication EP0818453B1, “Benzothiophene compounds and methods of use” (ELI LILLY AND COMPANY, priority 1996, dated 1998).
Marks after values point to notes of the source that are not given here.

Tested on: ovariectomized rats
Assay: Ovariectomized rat model of postmenopausal hyperlipidemia (serum cholesterol, uterine weight, uterine eosinophil peroxidase)
Format: in vivo
Details: for Serum Cholest. % Dec.: decrease versus ovariectomized controls; for Uterine Eosinophil (Vmax): eosinophil peroxidase, Vmaximum; for Uterine Weight % Inc: increase versus ovariectomized controls
Procedure: Experimental models of postmenopausal hyperlipidemia are known in the art. Germane to this invention is the ovariectomized rat model which is detailed in U.S. 5,464,845.
Data presented in Table 1 show comparative results among ovariectomized rats, rats treated with 17-a-ethynyl estradiol(EE2), and rats treated with certain compounds of this invention. […] This uterine response to estrogen is well recognized in the art.
As expressed in the data below, estrogenicity also was assessed by evaluating the response of eosinophil infiltration into the uterus.
The data presented in Table 1 reflect the response per treatment group.

Cl.O=C(c1ccc(-c2ccc(OCCN3CCCCC3)cc2)cc1)c1c(-c2ccc(O)cc2)sc2cc(O)ccc12 [Compound 5, [2-(4-Hydroxyphenyl)-6-hydroxybenzo[b]thien-3-yl] [4'-[2-(1-piperidinyl)ethoxy]biphenyl-4-yl]methanone hydrochloride]
Serum Cholest. % Dec. (0.01 mg/kg PO): 15.9* %
Serum Cholest. % Dec. (0.1 mg/kg PO): 66.7* %
Serum Cholest. % Dec. (1.0 mg/kg PO): 87.3* %

C#C[C@]1(O)CC[C@H]2[C@@H]3CCc4cc(O)ccc4[C@H]3CC[C@@]21C [EE2, 17-a-ethynyl estradiol]
Serum Cholest. % Dec. (0.001 mg/kg PO): -1.9%
Uterine Eosinophil (Vmax) (0.001 mg/kg PO): 20*
Uterine Weight % Inc (0.001 mg/kg PO): 35.8* %
Serum Cholest. % Dec. (0.01 mg/kg PO): 12%
Uterine Eosinophil (Vmax) (0.01 mg/kg PO): 25.6*
Uterine Weight % Inc (0.01 mg/kg PO): 61.0* %
Serum Cholest. % Dec. (0.1 mg/kg PO): 77.7* %
Uterine Eosinophil (Vmax) (0.1 mg/kg PO): 276.6*
Uterine Weight % Inc (0.1 mg/kg PO): 129.6* %
uterine weight (0.1 mg/kg/day orally, versus ovariectomized animals, result in words): substantially greater than the uterine weight of the ovariectomized animals
serum cholesterol (orally administered at 0.1 mg/kg/day, result in words): caused a decrease in serum cholesterol
eosinophil infiltration into the uterus (stromal layer of ovariectomized rat uteri, result in words): substantial and expected increase in eosinophil infiltration

O=C(c1ccc2cc(OCCN3CCCCC3)ccc2c1)c1c(-c2ccc(O)cc2)sc2cc(O)ccc12 [Compound 10, [2-(4-Hydroxyphenyl)-6-hydroxybenzo[b]thien-3-yl][6-[2-(1-piperidinyl)ethoxy]naphth-2-yl]methanone]
Serum Cholest. % Dec. (0.1 mg/kg PO): 39.4* %
Serum Cholest. % Dec. (1.0 mg/kg PO): 59.3* %
Serum Cholest. % Dec. (10.0 mg/kg PO): 69.1* %

C[C@]12CC[C@@H]3c4ccc(O)cc4CC[C@H]3[C@@H]1CC[C@@H]2O [17-b-Estradiol]
Serum Cholest. % Dec. (0.001 mg/kg PO): 67.6* %
Serum Cholest. % Dec. (0.01 mg/kg PO): 57.5* %
Serum Cholest. % Dec. (0.1 mg/kg PO): 58.7* %
